Experimental data published in PubChem BioAssay AID720520 (The Scripps Research Institute Molecular Screening Center, 2013).

How the values were obtained:
Assay in all cases: TLR2, TLR4, TLR7/8 NFkB reporter inhibition, late-stage follow-up, selectivity assay for TLR9 inhibitor project, RAW264.7 cells, luminescence, powder samples (AID 720520); call rule not given here
TLR4 = conditions: RAW264.7 TLR2/4/7-8 NFkB-luciferase reporter, 6 h, with LPS 0.1 µg/mL
TLR2 = conditions: RAW264.7 TLR2/4/7-8 NFkB-luciferase reporter, 6 h, with MALP-2 50 ng/mL
TLR7/8 = conditions: RAW264.7 TLR2/4/7-8 NFkB-luciferase reporter, 6 h, with R848 1 µg/mL

Measured: IC50

O=C1C=CC2(C=C1)O[C@H](Cc1ccccc1)[C@@H](Cc1ccccc1)O2
active: TLR4 226 nM | TLR2 226 nM | TLR7/8 245 nM

O=S(=O)(/C=C/C=C/S(=O)(=O)c1ccccc1)c1ccccc1
active: TLR4 126 nM | TLR2 126 nM | TLR7/8 93 nM

COc1ccc(C[C@@H]2OC3(C=CC(=O)C=C3)O[C@H]2Cc2ccc(OC)cc2)cc1
active: TLR4 72 nM | TLR2 58 nM | TLR7/8 80 nM
